The text below walks through data of patent US5935945A, “Methods of treating or preventing cardiac arrhythmia” (Merck & Co., Inc., priority 1997, dated 1999).

Test [1] concerns the target T1, IKs (slowly activating delayed rectifier K^+ current) (Cavia porcellus, UniProt O70344).
T1 construct: Guinea pig ventricular myocytes were isolated; from tissue; host or cells: isolated guinea pig ventricular myocytes
As to the kind of experiment: Voltage-clamp measurement of IKs in guinea pig ventricular myocytes. Type of test: cell-based. Conditions: read-out: % Block (Guinea Pig Ventricle) IKs. The method, then: Guinea pig ventricular myocytes were isolated using a modification of the procedure described by Mitra et al., Am. J. Physiol. 249:H1056-60 (1985). Excised hearts were perfused through the aorta (retrograde fashion) at a rate of 10 ml/min with oxygenated, warmed (37° C.) solutions described below. The heart was initially perfused for 7 minutes with a Tyrode's solution containing, (in mM): 132 NaCl, 4 KCl, 1.2 MgCl2, 10 HEPES, 5 glucose, pH=7.2. The heart was then perfused with the same nominally Ca^2+ -free solution containing 150 units/ml Type II collagenase (Worthington) and 0.5 units/ml Type XIV protease (Sigma) for 8 minutes. This perfusate was followed by a Tyrode's solution containing 0.2 mM CaCl2 (without enzymes) for 5 minutes. The digested ventricles were cut into small pieces and gently shaken until cells were visibly dispersed. The cells were stored at room temperature until use, within 8 hours after isolation.
The suction microelectrode technique described by Giles, W. R. and Shibata, E. F., "Voltage clamp of bull-frog cardiac pacemaker cells: a quantitative analysis of potassium currents", J. Physiol. 368:265-292 (1985) was used to voltage clamp the cells. Microelectrodes were made by using a two stage puller from square bore (1.0 mm o.d.) borosilicate capillary tubing. Pipettes were filled with 0.5 M K gluconate, 25 mM KCl and 5 mM K2 ATP. The electrodes had resistances of 3 to 7 M.OMEGA. when filled with this solution. After establishing whole-cell recording mode, negative pressure was maintained on the pipette using a 1 ml gas-tight syringe attached via air tight tubing to the suction port of the microelectrode holder. This minimized dialysis of the cell with the pipette solution.
To record K^+ currents, the cells were bathed in a Ca^2+ -free Tyrode's solution containing […]. […] To record Ca^2+ currents, the cells were bathed in Tyrode's solution containing 1.8 mM Ca^2+ without nisoldipine. The cell chamber was superfused with solutions at a rate of 1-2 ml/minute, while maintaining the temperature at 35±1° C. A List EPC-7 clamp amplifier was used to voltage clamp the isolated cells. […] (Sanguinetti M. C. and Jurkiewicz, N. K., "Two components of cardiac delayed rectifier K^+ current: Differential sensitivity to block by Class III antiarrhythmic agents", J. Gen Physiol 1990; 96:194-214.) Data was analyzed as % block from control membrane currents.
Nisoldipine was prepared as a 4 mM stock solution in polyethylene glycol 200. […] At the final concentrations used neither polyethylene glycol 200 nor dimethyl sulfoxide had any effect on any of the measured membrane currents.
Selectivity for block of cardiac K^+ channels, IK1, IKr, and IKs was determined as previously described in guinea pig ventricular myocytes (U.S. Pat. No. 5,428,031).

For test [2], the target named is T2, IKur (ultra-rapidly-activating delayed rectifier K^+ current) (Homo sapiens, UniProt P22460).
T2 construct: isolated human atrial myocytes; from tissue; host or cells: isolated myocytes from human right atrial appendage
T2 sequence (P22460 whole entry): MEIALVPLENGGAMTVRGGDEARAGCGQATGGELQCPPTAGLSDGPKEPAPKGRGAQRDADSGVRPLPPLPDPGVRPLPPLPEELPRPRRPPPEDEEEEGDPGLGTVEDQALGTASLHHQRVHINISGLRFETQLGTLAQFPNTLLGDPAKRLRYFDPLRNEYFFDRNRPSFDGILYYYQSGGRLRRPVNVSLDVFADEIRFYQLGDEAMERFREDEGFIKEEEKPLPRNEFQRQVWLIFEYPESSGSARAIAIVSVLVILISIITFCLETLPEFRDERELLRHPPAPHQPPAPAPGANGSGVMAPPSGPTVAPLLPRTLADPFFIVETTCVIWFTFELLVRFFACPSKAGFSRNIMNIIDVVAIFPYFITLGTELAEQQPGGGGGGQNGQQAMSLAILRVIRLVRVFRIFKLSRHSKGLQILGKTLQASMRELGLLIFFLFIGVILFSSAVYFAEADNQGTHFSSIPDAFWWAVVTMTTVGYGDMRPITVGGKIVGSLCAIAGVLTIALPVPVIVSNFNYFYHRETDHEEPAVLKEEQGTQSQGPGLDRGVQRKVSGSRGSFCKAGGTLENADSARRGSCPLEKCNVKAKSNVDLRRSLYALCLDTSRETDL
The test can be described thus: Voltage-clamp measurement of IKur in isolated human atrial myocytes. Type of test: cell-based. The note with it: rested state block, first pulse; 150 ms pulses to +40 mV from -50 mV; room temperature (22-24° C); read-out: Rested State IC50, IKur in Human Atrium. The method, then: J. Physiol. […] All tissues were collected in accordance with Temple University School of Medicine Institutional guidelines. […] Tissue samples were quickly immersed in cold (0-4° C.) cardioplegia solution containing (in mM/L): 50 KH2 PO4, 8 MgSO4, 10 NaHCO3, 5 adenosine, 25 taurine, 140 glucose, and 100 mannitol, pH 7.4 and bubbled with 100% O2. […] The tissue was gently agitated by continuous bubbling with 100% O2 for 5 min. […] The supernatant was removed after 40 min and discarded. The chunks were then incubated in a solution of the same ionic composition but supplemented with only collagenase and […] CaCl2. Microscopic examination of the medium was performed every 10-20 min to determine the number and quality of isolated cells. […] The supernatant was collected in a 50 ml centrifuge tube. […] Cells were used within 2-24 hr after isolation.
A small aliquot of the solution containing the isolated human atrial myocytes was placed in a 1-ml chamber mounted on the stage of an inverted microscope. Five minutes were allowed for cell adhesion to the bottom of the chamber. To record IKur, human atrial myocytes were superfused with a solution of the same ionic composition as that used for Kv1.5. An alternative external solution was sometimes used in which NaCl was replaced with NMDG (formal name: N-methyl-d-glucamine) to inhibit INa.
The amplitude of IKur was measured as the amplitude of the time-dependentcurrent at the end of the test pulse, relative to the holding current level. […] All experiments were performed at room temperature (22-24° C.).

pIC50: −log10 of the molar value.

T1 sequence (O70344 whole entry): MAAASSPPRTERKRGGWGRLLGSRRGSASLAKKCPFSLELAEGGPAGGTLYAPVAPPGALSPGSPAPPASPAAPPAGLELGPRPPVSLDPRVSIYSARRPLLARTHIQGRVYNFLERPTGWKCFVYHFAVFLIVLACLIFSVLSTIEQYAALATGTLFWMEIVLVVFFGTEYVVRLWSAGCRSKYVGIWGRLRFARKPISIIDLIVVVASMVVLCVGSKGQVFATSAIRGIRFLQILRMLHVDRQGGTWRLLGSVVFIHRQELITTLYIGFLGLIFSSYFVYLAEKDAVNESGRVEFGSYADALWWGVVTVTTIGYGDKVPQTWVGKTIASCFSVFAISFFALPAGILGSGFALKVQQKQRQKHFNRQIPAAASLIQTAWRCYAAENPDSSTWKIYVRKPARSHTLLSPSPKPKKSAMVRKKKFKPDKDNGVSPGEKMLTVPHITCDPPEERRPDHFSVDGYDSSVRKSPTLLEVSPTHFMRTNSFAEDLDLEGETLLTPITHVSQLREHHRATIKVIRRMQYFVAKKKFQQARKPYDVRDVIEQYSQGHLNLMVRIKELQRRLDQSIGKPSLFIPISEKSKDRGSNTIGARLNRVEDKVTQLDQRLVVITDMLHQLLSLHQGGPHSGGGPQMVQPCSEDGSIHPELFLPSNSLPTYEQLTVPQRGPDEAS
T1 sequence (Q60409 whole entry partner): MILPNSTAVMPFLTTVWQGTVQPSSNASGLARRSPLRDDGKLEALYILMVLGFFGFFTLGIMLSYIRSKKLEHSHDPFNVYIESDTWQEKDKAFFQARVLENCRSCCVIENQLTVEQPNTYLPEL

In general, pIC50 refers to the negative decadic logarithm of the IC50, by convention in mol/L. On to `COc1ccc(-n2nc(Sc3ccc(Cl)cc3)c(C)c(C#N)c2=O)cc1` [Compound A, 6-(4-Chlorophenylthio)-2-(4-methoxyphenyl)-5-methyl-3-oxo-2,3-dihydropyridazine-4-carbonitrile], for which the inhibition at 10 µM in test [1] (@ 10 μM) was 4%. In addition, the pIC50 in test [2] is 6.64.
For `COc1ccc(-n2nc(Sc3ccc(C)cc3)c(C)c(C#N)c2=O)cc1` [Compound B], in test [1], the inhibition at 3 µM is 13.6%. Moreover, the pIC50 in test [2] is 7.10.
On to `Cc1cc(C)c(CP(=O)(c2ccccc2)c2ccccc2)c(-c2ccc(F)c(C)c2)c1` [Compound C, 2-(Diphenylphosphinylmethyl)-4'-fluoro-3,5,3'-trimethyl-biphenyl], for which the inhibition at 3 µM in test [1] is 12.2%. Also, the pIC50 in test [2] was 6.11.
